Laboratory results as given in PMC6323635 (Journal of natural products, 2016).
Entries after “also recorded” stand apart in the source; their conditions may differ. Where two headings read alike, the source gives them in different places.

What was measured:
[1] = system: tumor growth in xenograft models; conditions: cited from earlier work
[2] = system: DNA topoisomerase II; conditions: cited from earlier work
[3] = system: HIF-1α transcriptional activity in COLO 205 cells; assay: HIF reporter assay; type: cell-based, human
[4] = system: COLO 205 cells; assay: CCK-8 cytotoxicity assay under hypoxic conditions; type: cell-based; conditions: for Cell death in COLO 205 cells: up to concentrations of 10 μM, hypoxia; for IC50: read-out: IC50 value (μM) ± SEM, COLO 205 (48 h, 0.5% O2), COLO 205, 48 h, 0.5% O2, CCK-8
[5] = target: HIF-1α/p300 (Homo sapiens, UniProt Q09472); assay: HIF-1α/p300 screening assay; type: binding
Sequence of HIF-1α/p300 (Q09472 331-417 limits assumed): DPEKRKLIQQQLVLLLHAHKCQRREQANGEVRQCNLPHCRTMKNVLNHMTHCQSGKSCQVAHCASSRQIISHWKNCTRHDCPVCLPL

[6] = system: VEGF secretion in HCT 116 cells; assay: VEGF ELISA; type: cell-based, human; conditions: for Hypoxia-induced VEGF secretion in HCT 116 cells: 48 h, 0.5% O2, concentrations active in HIF reporter assay
[7] = system: HIF-1α transcriptional activity in HCT 116 cells; assay: HIF reporter assay; type: cell-based
[8] = system: HCT 116 cells; conditions: cited from earlier work
[9] = system: VEGF secretion in LNCaP cells; assay: VEGF ELISA; type: cell-based, human; conditions: 18 h, 1% O2
[10] = system: HCT 116 cells; conditions: cited from earlier work; remark: listed apart in the source
[11] = system: ENO1, VEGF, and LDHA mRNA expression in PC3 prostate cancer cells; conditions: cited from earlier work
[12] = system: HCT 116 cells; assay: CCK-8 cytotoxicity assay under hypoxic conditions; type: cell-based, human; conditions: 0.5% O2, CCK-8
[13] = system: LNCaP cells; assay: CCK-8 cytotoxicity assay under hypoxic conditions; type: cell-based, human; conditions: read-out: IC50 value (μM) ± SEM, LNCaP (18 h, 1% O2), 1% O2, CCK-8
[14] = system: HIF-1α transcriptional activity in LNCaP cells; assay: HIF reporter assay; type: cell-based, human
[15] = read-out: IC50 value (μM) ± SD, HIF-1α/p300 screening assay, cell-free assay, ± SD
[16] = read-out: IC50 value (μM) ± SEM, HCT 116 (18 h, 0.5% O2), HCT 116, 18 h

## O=C1CC2SC3CC2(C=C1Br)C1=C(N3)C(=O)c2[nH]cc3c2C1=NCC3 (single isomer, unassigned; (+)) [compound 6, (+)-discorhabdin A]
[1]
  Tumor growth in xenograft models: did not reduce tumor growth

## O=C1C(NC2Cc3cc(Br)c(O)cc3S2)=CC2=NCCc3c[nH]c1c32 (single isomer, unassigned; (-)) [compound 5, (−)-makaluvamine F]
[2]
  Inhibition of DNA topoisomerase II: inhibit DNA topoisomerase II
[3]; p < 0.05, 18 h, 0.5% O2
  Concentrations causing significant inhibition of luciferase activity, COLO 205: no effect
[4]
  Cell death in COLO 205 cells: did not cause substantial cell death

## CN1C(=O)[C@]2(Cc3cn([C@]45C[C@@]67SS[C@@](CO)(C(=O)N6[C@H]4Nc4ccccc45)N(C)C7=O)c4ccccc34)SS[C@@]1(CO)C(=O)N2C [chetomin, reference compound]
[5]
  IC50: 1.9 ± 0.5 µM

## O=C1C=C2S[C@H]3C[C@]2(C=C1Br)C1=C(N3)C(=O)c2[nH]cc3c2C1=NCC3 [compound 1, (+)-discorhabdin B]
[3]; p < 0.05, 18 h, 0.5% O2
  Concentrations causing significant inhibition of luciferase activity, COLO 205: no effect
[1]
  Tumor growth in xenograft models: did not reduce tumor growth

## O=C1C=C(S[C@H]2[C@H]3C(=O)C=C4S[C@H]5C[C@]42C2=C(N5)C(=O)c4[nH]cc5c4C2=[N+]3CC5)[C@]2(C=C1Br)CCNC1=C2C2=NCCc3c[nH]c(c32)C1=O [compound 2, (−)-discorhabdin B dimer]
[6]; 0.1–0.25 μM, 18 h and 48 h
  Trend in VEGF secretion in HCT 116 cells: statistically nonsignificant trend in the decrease
[6]
  Hypoxia-induced VEGF secretion in HCT 116 cells: none of these compounds significantly reduced
[3]; p < 0.05, 18 h, 0.5% O2
  Concentrations causing significant inhibition of luciferase activity, COLO 205: no effect
[4]
  Cell death in COLO 205 cells: did not cause substantial cell death
[7]; in words, 18 h, 0.5% O2
  Effect on HIF-1α transcriptional (reporter) activity in HCT 116 cells: most potent at decreasing reporter activity

## O=C1C2=C(C3=NCCc4c[nH]c1c43)[C@]1(C=C(Br)[C@H](O)C(Br)=C1)CCN2 [compound 3, 3-dihydrodiscorhabdin C]
[3]; p < 0.05, 18 h, 0.5% O2
  Concentrations causing significant inhibition of luciferase activity, COLO 205: no effect
[8]
  IC50 values, cytotoxicity in HCT 116 cells: lower micromolar range

## O=C1C2=C3C4=[N+](CCc5c[nH]c1c54)[C@H]1C[C@@]34C[C@@H](N2)SC4=CC1=O [compound 7, (−)-discorhabdin D]
[1]
  Antitumor activity in vivo: the only reported discorhabdin with such activity

## O=C1C2=C3C4=[N+](CCc5c[nH]c1c54)[C@@H]1C(=O)C=C4S[C@@H](C[C@@]43[C@H]1O)N2 [compound 9, (−)-discorhabdin L]
[6]
  Hypoxia-induced VEGF secretion in HCT 116 cells: none of these compounds significantly reduced
[3]; p < 0.05, 18 h, 0.5% O2
  Concentrations causing significant inhibition of luciferase activity, COLO 205: no effect
[9]; 0.25–1 μM
  VEGF concentrations in LNCaP cells: borderline significant decrease

## CN1C(=O)[C@]23CC4=CC=C[C@H](O)[C@H]4N2C(=O)[C@@]1(CO)SS3 [gliotoxin]
[10]
  Effects on HIF target mRNA expression in HCT 116 cells: no effects
[11]
  ENO1, VEGF, and LDHA mRNA expression in PC3 prostate cancer cells: lowered

## (+)-discorhabdin G*/I [compound 4]
[8]
  IC50 values, cytotoxicity in HCT 116 cells: lower micromolar range

## (−)-discorhabdin H [compound 8]
[5]; [15]
  IC50: 2.2 ± 0.6 µM
[6]
  Hypoxia-induced VEGF secretion in HCT 116 cells: none of these compounds significantly reduced
[3]; p < 0.05, 18 h, 0.5% O2
  Concentrations causing significant inhibition of luciferase activity, COLO 205: no effect
[4]
  IC50: > 10 µM
  Cell death in COLO 205 cells: did not cause substantial cell death
[12]; [16]
  IC50: > 10 µM
[12]; read-out: IC50 value (μM) ± SEM, HCT 116 (48 h, 0.5% O2), HCT 116, 48 h
  IC50: > 50 µM
[13]
  IC50: > 10 µM
[9]; 0.5 μM
  VEGF secretion in LNCaP cells: significant decrease; also recorded: significantly decreased
[14]; p < 0.05, 18 h, 1% O2, superscript a = >50% cell death in CCK-8 assay
  Concentrations causing significant inhibition of luciferase activity, LNCaP: 0.1 µM

## (−)-discorhabdin W [compound 11]
[5]; in words
  Activity in the screening assay: no activity
[5]; [15]
  IC50: > 100 µM
[3]
  Concentrations causing significant inhibition of luciferase activity, COLO 205: no effect
[4]
  IC50: > 10 µM
  Cell death in COLO 205 cells: did not cause substantial cell death
[12]; [16]
  IC50: > 10 µM
[13]
  IC50: > 10 µM
[7]
  Effect on HIF-1α transcriptional (reporter) activity in HCT 116 cells: reduced HIF reporter activity
[14]
  Activity in HIF reporter assay in LNCaP cells: did not show activity
  Concentrations causing significant inhibition of luciferase activity, LNCaP: no effect
